Source: US11505558B1, “Antiviral heterocyclic compounds” (Enanta Pharmaceuticals, Inc., priority 2019, dated 2022)

System: genotype A, "Long" strain RSV
Test: RSV-A assay (CPE, ATPlite readout in Hep-2 cells)
Assay type: cell-based
Settings: human respiratory syncytial virus, HEp-2, Hep-2 cells, genotype A "Long" strain RSV, MOI 0.1; read-out: Human RSV-A (“Long” strain) EC50
Description: Hep-2 cells, (originally derived from tumors grown in irradiated-cortisonised weanling rats that had been injected with epidermoid carcinoma tissue from a person's larynx, but later found to be indistinguishable from HeLa cells by PCR DNA analysis), were used for the culturing of genotype A, “Long” strain RSV. Flasks were inoculated with RSV and viral stocks were collected once cytopathic effect (CPE) was greater than […]. Viral stocks in […] sucrose media were snap frozen using liquid nitrogen to increase viral stability. Viral stock titers were quantified by tissue culture infectious dose 50% (TCID50) using 8,000 cells per well and 3-fold viral dilutions across a 96-well plate, cultured for 4 days. Viral stock titers were also quantified by a plaque forming unit assay, as described elsewhere.
Following extensive parameter testing, the final assay is run as follows: Hep-2 cells are seeded into the inner 60 wells of a 96-well plate at 8,000 cells per well in a volume of 50 μL using Growth Media (DMEM without phenol red, 1% L-Glut, 1% Penn/Strep, 1% nonessential amino acids, 10% heat-inactivated FBS). 2-fold serial dilutions of control and test compounds are added to the wells in duplicate in a total volume of 25 μL. Viral stock is then added to the wells at a multiplicity of infection (MOI) of 0.1 in a volume of 25 μL, bringing the total volume of each well to 100 μL. The MOI is calculated using the PFU/mL, or TCID50 if unavailable. Each 96-well plate has a control column of 6 wells with cells and virus but no compound (negative control, max CPE), a column with cells but no compound or virus (positive control, minimum CPE), and a column with no cells or virus or compound (background plate/reagent control). The control wells with cells but no virus are given an additional 25 μL of growth media containing an equal quantity of sucrose as those wells receiving the viral stock in order to keep consistent in media and volume conditions. The outer wells of the plate are filled with 125 μL of moat media (DMEM, 1% Penn/Strep) to act as a thermal and evaporative moat around the test wells. Following a 5-day incubation period, the plates are read using ATPlite (50 uL added per well), which quantifies the amount of ATP (a measure of cell health) present in each well. Assay plates are read using the Envision luminometer. […] EC50 ranges are as follows: A<0.2 μM; B>0.2 μM.

Structure (SMILES) | EC50
C[C@]1(C(N)=O)COc2c1cc([C@@](O)(CNC(=O)c1ccc3nc(N)sc3c1)C1CC1)nc2-c1ccc(F)cc1 [Example 441] | < 200 nM
Cn1c(=O)[nH]c2cc(C(=O)NC[C@](O)(c3cc4c(c(-c5ccc(F)cc5)n3)OC[C@]4(C)C(N)=O)C(F)(F)F)ccc21 [Example 325] | > 200 nM
Cc1nnc2ccc(C(=O)NC[C@](O)(c3cc4c(c(-c5ccc(F)cc5)n3)OC[C@]4(C)C(N)=O)C(F)(F)F)cc2c1C [Example 231] | > 200 nM
C[C@]1(C(N)=O)COc2c1cc([C@@](O)(CNC(=O)c1ccc3nc(N)sc3c1)C(F)(F)F)nc2-c1ccc(Cl)cc1 [Example 448] | < 200 nM
C[C@]1(C(N)=O)COc2c1cc([C@@](O)(CNC(=O)c1cc(NC(=O)[C@H]3CCN3)c3ncccc3c1)C(F)(F)F)nc2-c1ccc(F)cc1 [Example 399] | > 200 nM
C[C@]1(C(N)=O)COc2c1cc([C@@](O)(CNC(=O)c1ccc(OC3CC3)c(-c3cccnc3C(F)(F)F)c1)C(F)(F)F)nc2-c1ccc(F)cc1 [Example 138] | < 200 nM
Cc1cc(-c2cc(C(=O)NC[C@](O)(c3cc4c(c(-c5ccc(F)cc5)n3)OC[C@]4(C)C(N)=O)C(F)(F)F)ccc2OC2CC2)ccn1 [Example 120] | < 200 nM
C[C@]1(C(N)=O)COc2c1cc([C@@](O)(CNC(=O)c1ccc(N3CCOCC3)c(OC3CC3)c1)C(F)(F)F)nc2-c1ccc(F)cc1 [Example 160] | > 200 nM
NC(=O)C1(F)COc2c1cc([C@@](O)(CNC(=O)c1cc(OC3CC3)c3ncccc3c1)C(F)(F)F)nc2-c1ccc(F)cc1 (stereo partly drawn) [Example 665] | > 200 nM
C[C@]1(C(N)=O)COc2c1cc([C@@](O)(CNC(=O)c1ccc(-c3ccncn3)c(OC3CC3)c1)C(F)(F)F)nc2-c1ccc(F)cc1 [Example 170] | > 200 nM
C[C@]1(C(=O)N2CC[C@H](O)C2)COc2c1cc([C@@](O)(CNC(=O)c1cc(OC3CC3)c3ncccc3c1)C(F)(F)F)nc2-c1ccc(F)cc1 [Example 469] | > 200 nM
C[C@]1(C(N)=O)COc2c1cc([C@@](O)(CNC(=O)c1cc(O)c3ncccc3c1)C(F)(F)F)nc2-c1ccc(F)cc1 [Example 229] | > 200 nM
CNC(=O)[C@@]1(C)COc2c1cc([C@@](O)(CNC(=O)c1cc(OCC(N)=O)c3ncccc3c1)C(F)(F)F)nc2-c1ccc(F)cc1 [Example 276] | < 200 nM
Cc1cnc2c(OCC(F)F)cc(C(=O)NC[C@](O)(c3cc4c(c(-c5ccc(F)cc5)n3)OC[C@]4(C)C(N)=O)C(F)(F)F)cc2c1 [Example 629] | < 200 nM
CNC(=O)[C@@]1(C)COc2c1cc([C@@](O)(CNC(=O)c1cc(NC(N)=O)c3ncccc3c1)C(F)(F)F)nc2-c1ccc(F)cc1 [Example 284] | < 200 nM
COc1cc(C(=O)NC[C@](O)(c2cc3c(c(-c4ccc(F)cc4)n2)OC[C@]3(C)C(=O)NC2(C)COC2)C(F)(F)F)cc2cccnc12 [Example 57] | < 200 nM
C[C@]1(C(N)=O)COc2c1cc([C@@](O)(CNC(=O)c1ccc(-c3ccc(=O)[nH]c3)c(OC3CC3)c1)C(F)(F)F)nc2-c1ccc(F)cc1 [Example 169] | > 200 nM
C[C@]1(C(N)=O)COc2c1cc([C@@](O)(CNC(=O)c1cc3cncnc3[nH]1)C(F)(F)F)nc2-c1ccc(F)cc1 [Example 292] | > 200 nM
COc1cc(C(=O)NC[C@](O)(c2cc3c(c(-c4ccc(F)cc4)n2)OC[C@@]3(F)C(N)=O)C(F)(F)F)ccc1OC1CC1 [Example 667] | > 200 nM
C[C@]1(C(N)=O)COc2c1cc([C@@](O)(CNC(=O)c1ccc(OC3CC3)c(-c3ccnnc3)c1)C(F)(F)F)nc2-c1ccc(F)cc1 [Example 135] | < 200 nM
C[C@]1(C(N)=O)COc2c1cc([C@@](O)(CNC(=O)c1cc(-c3cnc(N)nc3)c3ncccc3c1)C(F)(F)F)nc2-c1ccc(F)cc1 [Example 352] | < 200 nM
C[C@]1(C(N)=O)COc2c1cc([C@@](O)(CNC(=O)c1ccc3nc(N)oc3c1)C(F)(F)F)nc2-c1ccc(F)c(Cl)c1 [Example 426] | < 200 nM
COc1cc(C(=O)NC[C@](O)(c2cc3c(c(-c4ccc(C)cc4)n2)OC[C@]3(C)C(N)=O)C(F)(F)F)cc2cc(C)cnc12 [Example 259] | < 200 nM
COc1cc(C(=O)NC[C@](O)(c2cc3c(c(-c4ccc(F)cc4)n2)OC[C@]3(C)C(N)=O)C(F)(F)F)ccc1O [Example 310] | < 200 nM

Structure (SMILES) | EC50
CC(Oc1cc(C(=O)NC[C@](O)(c2cc3c(c(-c4ccc(F)cc4)n2)OC[C@]3(C)C(N)=O)C(F)(F)F)cc2cccnc12)C(N)=O (stereo partly drawn) [Example 383] | > 200 nM
C[C@]1(C(N)=O)COc2c1cc([C@@](O)(CNC(=O)c1cc(OCC(=O)NC[C@H](O)CO)c3ncccc3c1)C(F)(F)F)nc2-c1ccc(F)cc1 [Example 378] | > 200 nM
COc1cc(C(=O)NC[C@](O)(c2cc3c(c(-c4ccc(F)cc4)n2)OC[C@]3(C)C(N)=O)C(F)(F)F)ccc1OCCF [Example 68] | < 200 nM
CC(C)(O)CNC(=O)[C@@]1(C)COc2c1cc([C@@](O)(CNC(=O)c1cc(Cl)c3ncccc3c1)C(F)(F)F)nc2-c1ccc(F)cc1 [Example 496] | < 200 nM
COc1cc(C(=O)NC[C@](O)(c2cc3c(c(-c4ccc(F)cc4)n2)OC[C@]3(C)C(N)=O)C(F)(F)F)ccc1-c1nnco1 [Example 200] | < 200 nM
C[C@]1(C(N)=O)COc2c1cc([C@@](O)(CNC(=O)c1ccc(-c3ncco3)c(OC3CC3)c1)C(F)(F)F)nc2-c1ccc(F)cc1 [Example 171] | < 200 nM
C[C@]1(C(N)=O)COc2c1cc([C@@](O)(CNC(=O)c1ccc(OC3CC3)c(C3=CCOCC3)c1)C(F)(F)F)nc2-c1ccc(F)cc1 [Example 122] | < 200 nM
C[C@]1(C(N)=O)COc2c1cc([C@@](O)(CNC(=O)c1cc(NC(=O)NC3COC3)c3ncccc3c1)C(F)(F)F)nc2-c1ccc(F)cc1 [Example 414] | < 200 nM
C[C@]1(C(N)=O)COc2c1cc([C@@](O)(CNC(=O)c1cc(-c3ccccn3)c3ncccc3c1)C(F)(F)F)nc2-c1ccc(F)cc1 [Example 353] | < 200 nM
Cc1cc(-c2ccc(C(=O)NC[C@](O)(c3cc4c(c(-c5ccc(F)cc5)n3)OC[C@]4(C)C(N)=O)C(F)(F)F)cc2OC2CC2)ccn1 [Example 151] | < 200 nM
C[C@]1(C(N)=O)COc2c1cc([C@@](O)(CNC(=O)c1ccc3nc(N)oc3c1)C(F)(F)F)nc2-c1ccc(F)cc1 [Example 425] | < 200 nM
C[C@]1(C(N)=O)COc2c1cc([C@@](O)(CNC(=O)c1ccc3c(Cl)nccc3c1)C(F)(F)F)nc2-c1ccc(F)cc1 [Example 247] | < 200 nM
C[C@]1(C(N)=O)COc2c1cc([C@@](O)(CNC(=O)c1cc(OCC(=O)Nc3ccccc3)c3ncccc3c1)C(F)(F)F)nc2-c1ccc(F)cc1 [Example 371] | < 200 nM
C[C@]1(C(N)=O)COc2c1cc([C@@](O)(CNC(=O)c1ccc3ccncc3c1)C(F)(F)F)nc2-c1ccc(F)cc1 [Example 268] | < 200 nM
CN1Cc2cc(C(=O)NC[C@](O)(c3cc4c(c(-c5ccc(F)c(Cl)c5)n3)OC[C@]4(C)C(N)=O)C3CC3)ccc2C1=O [Example 645] | < 200 nM
Cc1cnc2c(NC(=O)Nc3cccnc3)cc(C(=O)NC[C@](O)(c3cc4c(c(-c5ccc(F)cc5)n3)OC[C@]4(C)C(N)=O)C(F)(F)F)cc2c1 [Example 625] | < 200 nM
COc1cc(C(=O)NC[C@](C)(O)c2cc3c(c(-c4ccc(F)cc4)n2)OC[C@]3(C)C(N)=O)ccc1OC[C@@H](C)O [Example 264] | < 200 nM
COc1cc(C(=O)NC[C@](O)(c2cc3c(c(-c4ccc(F)cc4)n2)OC[C@]3(C)C(=O)NC23CC(C2)C3)C(F)(F)F)cc2cccnc12 [Example 54] | < 200 nM
COc1ccc2cc(C(=O)NC[C@](O)(c3cc4c(c(-c5ccc(F)cc5)n3)OC[C@]4(C)C(N)=O)C(F)(F)F)[nH]c2c1 [Example 304] | < 200 nM
C[C@]1(C(=O)NC(=N)N)COc2c1cc([C@@](O)(CNC(=O)c1cc(OC3CC3)c3ncccc3c1)C(F)(F)F)nc2-c1ccc(F)cc1 [Example 458] | > 200 nM
C[C@]1(C(N)=O)COc2c1cc([C@@](O)(CNC(=O)c1cc(Nc3ccccn3)c3ncccc3c1)C(F)(F)F)nc2-c1ccc(F)cc1 [Example 338] | < 200 nM
Cc1cnc2c(NC(=O)C(F)(F)F)cc(C(=O)NC[C@](O)(c3cc4c(c(-c5ccc(F)cc5)n3)OC[C@]4(C)C(N)=O)C(F)(F)F)cc2c1 [Example 554] | < 200 nM
COc1cc(C(=O)NC[C@](O)(c2cc3c(c(C#Cc4ccc(Cl)cc4F)n2)OC[C@]3(C)C(N)=O)C(F)(F)F)ccc1OC1CC1 [Example 514] | > 200 nM
COc1cc(C(=O)NC[C@](O)(c2cc3c(c(-c4ccc(F)cc4)n2)OC[C@]3(C)CNC(=O)C2CC2)C(F)(F)F)ccc1OCCO [Example 9] | < 200 nM
